Laboratory results from patent US5219872A, “Compounds of 1,2,5,6-tetrahydropyridin-3-carboxaldehyde oxime which are useful as cholinergic agents” (Roussel UCLAF, priority 1986, dated 1993).
Where a name gives a salt, the structure may show the parent alone. Read-outs that look alike come from different tables or passages of the source.

Experiments:
in vivo = details: rat, oral route, male rats CD1, fasting 16 hours, mortality in seven days
Experimental: Male rats (CD1 Charles Rivers) were used, weighing […], fasting for 16 hours. […] The mortality was checked in the seven days following the treatment.

[1] = test system: isolated ileum from guinea-pigs; assay: Isolated guinea-pig ileum: contracting (agonist) activity; details: Cavia porcellus, read-out: pD2 (negative logarithm of the dose which produces 50% of the maximum effect) (converted)
Experimental: Sections of ileum were removed from guinea-pigs killed by decapitation. […] The contracting effect of the compounds was detected, with an isometric transducer connected to a recorder. The products under test were added at scalar concentrations between 1×10^-3 and 1×10^-8 moles.
The agonist activity was expressed in pD2 (negative logarithm of the dose which produces 50% of the maximum effect.)

[2] = test system: isolated ileum from guinea-pigs (response induced with acetylcholine); assay: Isolated guinea-pig ileum: antagonist activity against acetylcholine; details: Cavia porcellus; antagonist activity vs acetylcholine; Tyrode's solution 37° C.; products added between 1×10^-3 and 1×10^-8 moles; read-out: ED50 (dose inhibiting 50% of the maximum response induced with acetylcholine)
Experimental: ILEUM FROM GUINEA-PIGS Sections of ileum were removed from guinea-pigs killed by decapitation. The isolated ileum was suspended in a bath containing 10 ml of Tyrode's solution thermo-regulated at 37° C. and aerated with a mixture of O2 (95%) and CO2 (5%). The contracting effect of the compounds was detected, with an isometric transducer connected to a recorder. The products under test were added at scalar concentrations between 1×10^-3 and 1×10^-8 moles. The products endowed with contracting activity were checked against atropine or hexamethonium to establish whether the activity was of muscarine type or nicotine type. The possible antagonist activity of the products was tested against acetylcholine.

[3] = Hypothermic activity (central cholinomimetic activity); type: in vivo; details: Mus musculus, read-out: Effective dose (-1° C.)
Experimental: (§1) Male mice (CD1 Charles Rivers) were used, weighing 25-30 g, fasting for 6 hours. The body temperature was noted by means of a thermo-couple, inserted in the rectum for about 1.5 cm and connected to an electric temperature indicator.
(§2) The degree of hypothermia was evaluated as the difference between the treated and the control animals, and the dose was determined which was necessary to reduce the body temperature by 1° C.

Diarrhoea activity = details: rat, in vivo, po
Experimental: Male rats (CD1 Charles Rivers) were used, weighing 25-30 g, fasting for 6 hours. The compounds were administered by oral route, by means of an oesophagic probe, dissolved at 0.5% in methocel. The controls received only the vehicle (20 ml/Kg).
1: faeces moderately soft with or without formation of a halo of humidity
2: faeces moderately soft with formation of a well defined circle of humidity,
3: faeces soft, with formation of a large circle of humidity,
4: faeces without consistency with formation of a very large circle of humidity.

[4] = Duration of action: variations of the body temperature; type: in vivo, mouse; details: dose mg/kg: Example 3 0,15, 7 1,25
Experimental: as §1, §2
The duration of action of the products was evaluated using doses of equal ability to cause a reduction of body temperature of 1°-1,5° C.

[5] = test system: patients having a memory defect; details: intravenous route; Sitaram 1978, Christie 1981; cited from earlier work
[6] = cited from earlier work
[7] = agonist activity, Tyrode's solution 37° C.
[8] = sc, sub-cutaneous, dose to reduce the body temperature by 1° C.
[9] = oral, dose to reduce the body temperature by 1° C.
[10] = os, 0 minutes, 8 0,5, 10 0,5, arecoline HBr 200
[11] = os, 30 minutes, 8 0,5, 10 0,5, arecoline HBr 200, ** p < 0,01 vs controls (all values)
[12] = os, 60 minutes, 8 0,5, 10 0,5, arecoline HBr 200, ** p < 0,01 vs controls (all values)
[13] = os, 120 minutes, 8 0,5, 10 0,5, arecoline HBr 200, ** p < 0,01 for Example 7 only
[14] = os, 180 minutes, 8 0,5, 10 0,5, arecoline HBr 200
[15] = sc, 30 minutes, 8 1, 10 0,75, arecoline HBr 3,5, ** p < 0,01 vs controls (all values)
[16] = sc, 60 minutes, 8 1, 10 0,75, arecoline HBr 3,5, ** p < 0,01 for Examples 3, 7, 8, 10
[17] = sc, 120 minutes, 8 1, 10 0,75, arecoline HBr 3,5, ** p < 0,01 for Example 7 only
[18] = sc, 180 minutes, 8 1, 10 0,75, arecoline HBr 3,5

Row | SMILES | LD50 at 168 h (in vivo) [mg/kg] | EC50 [1, 7] [µM] | IC50 [2] [µM] | ED (-1 C) [3, 8] [mg/kg] | ED (-1 C) [3, 9] [mg/kg] | ED50 (Diarrhoea activity) [mg/kg] | variation of the body temperature [4, 11] | variation of the body temperature [4, 12] | variation of the body temperature [4, 13] | variation of the body temperature [4, 15] | variation of the body temperature [4, 16] | variation of the body temperature [4, 17] | variation of the body temperature [4, 18] | also measured
1 | CCCCN1CCC=C(C=NOC)C1 [Example 9, 1-butyl-1,2,5,6-tetrahydropyridin-3-carboxaldehyde-O-methyloxime] | 30 | > 1000 | 230 | 0.85 | 0.79 | 3.5 | – | – | – | – | – | – | – | –
2 | COC(=O)C1=CCCN(C)C1 [Arecoline HBr, reference compound] | – | – | – | – | – | 35 | -1,1 °C | -1,0 °C | -0,2 °C | -1,5 °C | -0,1 °C | +0,2 °C | +0,2 °C | ED (-1 C) ([3]; po): 194 mg/kg; ED (-1 C) ([3]; sc): 3 mg/kg; variation of the body temperature [4, 10]: +0,1 °C; variation of the body temperature [4, 14]: -0,1 °C; variation of the body temperature ([4]; sc, 0 minutes, 8 1, 10 0,75, arecoline HBr 3,5): -0,1 °C
3 | C=CCN1CCC=C(C=NOC)C1 [Example 10, 1-allyl-1,2,5,6-tetrahydropyridin-3-carboxaldehyde-O-methyloxime] | 175 | 15.8 | – | 0.86 | 0.34 | 1.2 | -1,5 °C | -0,7 °C | -0,1 °C | -0,8 °C | -1,0 °C | -0,1 °C | +0,1 °C | variation of the body temperature [4, 10]: -0,1 °C; variation of the body temperature [4, 14]: +0,2 °C
4 | CON=CC1=CCCNC1.Cl [Example 3, 1,2,5,6-tetrahydropyridin-3-carboxaldehyde-O-methyloxime Hydrochloride] | 75 | 0.263 | – | 0.12 | 0.11 | 0.15 | -1,5 °C | -0,8 °C | -0,2 °C | -1,2 °C | -0,8 °C | -0,2 °C | -0,1 °C | variation of the body temperature [4, 10]: +0.1 °C
5 | CN(C)CCON=CC1=CCCN(C)C1 [Example 6, 3-[2-(N,N-dimethylaminoethoxyimino)-methyl]-1-methyl-1,2,5,6-tetrahydropyridine] | 750 | 148 | – | – | 135 | > 100 | – | – | – | – | – | – | – | –
6 | CCON=CC1=CCCN(C)C1.Cl [Example 2, 1-methyl-1,2,5,6-tetrahydropyridin-3-carboxaldehyde-O-ethyloxime hydrochloride] | 250 | > 1000 | 180 | 11 | 13 | 50 | – | – | – | – | – | – | – | –
7 | CC(C)ON=CC1=CCCN(C)C1 [Example 4, O-isopropyl-N-methyl-1,2,5,6-tetrahydropyridin-3-carboxaldehyde oxime hydrochloride] | 350 | > 1000 | 11 | – | 40 | > 100 | – | – | – | – | – | – | – | –
8 | CCCCCN1CCC=C(C=NOC)C1 [Example 11, 1-pentyl-1,2,5,6-tetrahydropyridin-3-carboxaldehyde-O-methyloxime] | 175 | > 1000 | 160 | 4 | 3 | 5 | – | – | – | – | – | – | – | –
9 | CON=CC1=CCCN(C)C1 [Example 1, 1-methyl-1,2,5,6-tetrahydropyridin-3-carboxyaldehyde-O-methyloxime hydrochloride] | – | 0.525 | – | 0.14 | 0.46 | 0.6 | – | – | – | – | – | – | – | –
10 | C#CCON=CC1=CCCN(C)C1 [Example 12, 1-methyl-1,2,5,6-tetrahydropyridin-3-carboxaldehyde-O-propargyloxime] | 60 | 0.479 | – | 0.63 | 2 | 5.5 | – | – | – | – | – | – | – | –
11 | CC(=O)ON=CC1=CCCN(C)C1 [Example 5, 1-methyl-1,2,5,6-tetrahydropyridin-3-carboxaldehyde-0-acetyl-oxime] | 500 | 51.3 | – | – | 39 | > 100 | – | – | – | – | – | – | – | –
12 | COC(=O)C1=CCCN(C)C1 [Arecoline] | – | – | – | – | – | – | – | – | – | – | – | – | – | EC50 [1]: 0.331 µM; effect on patients having a memory defect [5]: positive effect; duration of action ([6]; in vivo): short duration of action; activity by oral route ([6]; oral route): very weak activity
13 | CCCN1CCC=C(C=NOC)C1 [Example 8] | 100 | 25.1 | – | 0.83 | 0.34 | 1.7 | -1,5 °C | -1,3 °C | -0,4 °C | -0,7 °C | -1,2 °C | -0,2 °C | -0,1 °C | –
14 | CCN1CCC=C(C=NOC)C1.Cl [Example 7, 1-ethyl-1,2,5,6-tetrahydro-pyridin-3-carboxaldehyde-O-methyloxime hydrochloride] | – | > 1000 | 200 | 1.16 | 0.97 | 10 | -1,1 °C | -1,1 °C | -0,6 °C | -0,5 °C | -1,0 °C | -0,6 °C | -0,1 °C | variation of the body temperature [4, 14]: -0,2 °C
